Results taken from patent US20230398178A1, “METHODS AND COMPOSITIONS FOR TREATING OR PREVENTING A VAGINAL INFECTION OF GARDNERELLA VAGINALIS” (Massachusetts Institute of Technology, priority 2022, published 2023).
“Also recorded” adds a separate entry of the source.

How the values were obtained:
G. vaginalis 14018 [1] = test: Total growth of G. vaginalis 14018 (CFU assay); assay type: cell-based, Gardnerella vaginalis; settings: for effect on total growth, in words: G. vaginalis 14018, NYCIII media (contains 1% glucose), soluble additive; for effect on growth in media without glucose, in words: G. vaginalis 14018, NYCIII media without glucose (data not shown); for suppression of growth: G. vaginalis 14018, glucose-rich NYCIII media, 0.2 wt % soluble monosaccharide
[2] = test system: Gardnerella vaginalis mature biofilms; test: Minimum biofilm eradication assay with metronidazole; assay type: cell-based; settings: 0.2 wt % monosaccharide with metronidazole concentration series, established biofilms, 24 h
Procedure: Mature biofilms of Gardnerella vaginalis were established as described above. On a separate plate serial dilution of metronidazole alone or in combination with 0.2 wt % Gal/D-Fuc were prepared in NYC III 1% Glc medium. Negative controls (no metronidazole) were also included on the plate. After spent supernatant was drained from mature biofilms, 100 μL, of metronidazole/metronidazole-monosaccharide or negative controls solutions were added to the biofilms and plate was rocked (100 rpm) for 24 h in the anaerobic atmosphere (generated with AnaeroPack, Mitsubishi in the airtight container) in the 37° C. incubator. After 24 h incubation, the CFUs of supernatant and biofilm fractions were quantified as described in the biofilm disruption experiment.

[3] = test system: Gardnerella vaginalis 49145; test: Biofilm formation of G. vaginalis 49145 (CFU assay); assay type: cell-based
[4] = test system: Gardnerella vaginalis 49145; test: Total growth of G. vaginalis 49145 (CFU assay); assay type: cell-based; settings: G. vaginalis 49145, glucose-rich media
[5] = test system: Gardnerella vaginalis ATCC 14018 mature biofilms; test: Disruption of established G. vaginalis biofilms (CFU of biofilm and supernatant fractions); assay type: cell-based; settings: for viable cell counts in supernatant / biofilm fractions, in words: pre-established 24 h biofilms, 24 h treatment
Procedure: Gardnerella vaginalis 14018 ATCC strain was obtained from ATCC. Salivary MUC5B mucin was isolated and purified as described previously. Galactose and D-Fucose were obtained from Sigma-Aldrich. AnaeroPacks were purchased from VWR. Prior to the experiment, MUC5B mucin was weighed out and solubilized to desired concentration on a shaker overnight. To establish mature biofilms, an overnight preculture of Gardnerella vaginalis ATCC 14018 was diluted 1:20 into fresh NYC III medium with 1% glucose and incubated at 37° C. in the anaerobic chamber for 24 h. Before adding fresh solutions, a set of triplicate wells was sacrificed to quantify cell counts in supernatant and biofilm fraction at the 24 h timepoint. The spent supernatant was gently drained from the rest of the wells and fresh medium or mucin/monosaccharide solutions in medium were added on top of the bacterial biomass. Plate was gently rocked (100 rpm) for 24 h in the anaerobic atmosphere (generated with AnaeroPack, Mitsubishi in the airtight container) in the 37° C. incubator. After 24 h, the supernatant was removed into a separate plate and the biofilms were washed twice with […], sterile phosphate-buffer saline (PBS) and washes were combined with the supernatant (=supernatant fraction). Another […], of PBS was added to the biofilms, each well was vigorously scraped with P20 tip for 20 s and scraped biomass pipetted up and down to homogenize the solution (=biofilm fraction). Both supernatant and biofilm solutions were serially diluted, plated on BHI-agar (BHI=brain-heart infusion, 1.5% agar) and incubated in the anaerobic chamber 37° C. incubator. Colonies were counted after ˜48 h.

G. vaginalis 14018 [6] = test: Biofilm formation of G. vaginalis 14018 in polystyrene plates (CFU assay); assay type: cell-based, Gardnerella vaginalis; settings: for effect on (proportional) biofilm formation, in words: G. vaginalis 14018, 24 hour biofilms, NYCIII media; for reduction of biofilm formation: G. vaginalis 14018, NYCIII media, anaerobic, 24 h, 0.2 wt %

Molecule	effect on total growth, in words (G. vaginalis 14018 [1])	effect on biofilm formation, in words [3]	viable cell counts in supernatant / biofilm fractions, in words [5]	effect on (proportional) biofilm formation, in words (G. vaginalis 14018 [6])	reduction of biofilm formation (G. vaginalis 14018 [6]) [%]	further results
C[C@@H](O)[C@H](O)[C@H](O)[C@@H](O)C=O [D-fucose, 6-deoxy-D-galactose]	limited G. vaginalis growth in glucose-rich media; also recorded: reduced the overall growth	reduction of biofilm formation	reduction in viable cells in both biofilm and supernatant fractions	inhibit biofilm formation	72	effect on growth in media without glucose, in words (G. vaginalis 14018 [1]): did not diminish; suppression of growth (G. vaginalis 14018 [1]): 75%; effect in combination with metronidazole on biofilm eradication, in words ([2]; listed as D-Fuc): synergistic effect; effect in combination with metronidazole on biofilm eradication, in words ([2]; listed as D-Fucose): potentiate the action of antibiotic metronidazole; effect on total growth, in words [4]: suppressed the growth; effect on (proportional) biofilm formation, in words (G. vaginalis 14018 [6]; listed as D-Fuc): significantly reduced proportional biofilm formation
CC(=O)N[C@H]1C(O)O[C@H](CO)[C@H](O)[C@@H]1O (stereo partly drawn) [GalNAc, N-acetyl D-galactosamine, reference compound]	have no effect			only galactose was able to reduce proportional biofilm formation		
CC(=O)N[C@H]1C(O)O[C@H](CO)[C@@H](O)[C@@H]1O (stereo partly drawn) [GlcNAc, N-acetyl D-glucosamine, reference compound]	have no effect			only galactose was able to reduce proportional biofilm formation		
C[C@H](O)[C@@H](O)[C@@H](O)[C@H](O)C=O [L-Fuc, L-fucose, reference compound]				only galactose was able to reduce proportional biofilm formation		
CC(=O)N[C@H]1[C@H]([C@H](O)[C@H](O)CO)OC(O)(C(=O)O)C[C@@H]1O (stereo partly drawn) [NeuNAc, N-acetyl D-neuraminic acid, reference compound]				only galactose was able to reduce proportional biofilm formation		
O=C[C@H](O)[C@@H](O)[C@@H](O)[C@H](O)CO [galactose, D-galactose]	limited G. vaginalis growth in glucose-rich media; also recorded: reduced the overall growth	reduction of biofilm formation	reduction in viable cells in both biofilm and supernatant fractions	inhibit biofilm formation; also recorded: significantly reduced proportional biofilm formation	85	effect on growth in media without glucose, in words (G. vaginalis 14018 [1]): did not diminish; suppression of growth (G. vaginalis 14018 [1]): 90%; effect in combination with metronidazole on biofilm eradication, in words [2]: potentiate the action of antibiotic metronidazole; effect in combination with metronidazole on biofilm eradication, in words ([2]; listed as Gal): synergistic effect
MUC5B: mucin glycoprotein, predominant in cervicovaginal fluid, purified from pooled human saliva and reconstituted into gels	did not limit the growth of the bacteria; also recorded: did not have any detrimental impact	reduction of biofilm formation	increase in the cell counts in the supernatant	limited its biofilm formation, toxin production, and killing of endocervical cells; also recorded: reduces relative biofilm formation	76	disruption of established biofilms, in words ([5]; pre-established biofilms): disrupt established biofilms; effect on (proportional) biofilm formation, in words (G. vaginalis 14018 [6]; listed as mucin): inhibit biofilm formation
